Laboratory results from ChEMBL document CHEMBL3616418, “Discovery of Bivalent Kinase Inhibitors via Enzyme-Templated Fragment Elaboration” (ACS Med Chem Lett, 2015).
pKi: −log10 of the molar value.

Tests used:
[1] = biological target: Tyrosine-protein kinase HCK (Homo sapiens, UniProt P08631); experiment: Inhibition of Hck (unknown origin)
[2] = biological target: Tyrosine-protein kinase ABL1 (Homo sapiens, UniProt P00519); experiment: Inhibition of c-Abl (unknown origin)
[3] = biological target: Proto-oncogene tyrosine-protein kinase Src (Homo sapiens, UniProt P12931, C277S/C483S); experiment: Inhibition of c-Src C277S, C483S, […] mutant (unknown origin)

## C=CC(=O)N1CCCC1c1ccco1 (stereo not drawn)
[1]
  pKi: < 2.90
[2]
  pKi: < 2.90

## O=C(CCS)Nc1cccc(Nc2nccc(Nc3cc(C4CC4)[nH]n3)n2)c1
[3]
  pKi: 6.70
